Measured values as given in patent publication US20060069132A1, “Azolecarboxamide herbicides” (priority 2004, published 2006).

Tests used:
rice [1] = test: Test B flooded paddy test; type: in vivo, Oryza sativa; settings: 1000 g ai/ha, visual rating, scale 0 to 100 (0 no effect, 100 complete control), 13 to 15 days
How it was run: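 Paddy species grown to the 2-leaf stage under flooding; blackgrass sprayed postemergence at 2–18 cm (1- to 4-leaf stage). Plants kept in a greenhouse for 13 to 15 days, then visually rated against controls on 0 (no effect) to 100 (complete control).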

rice [2] = test: Test C flooded paddy test; type: in vivo, Oryza sativa
How it was run: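 Injury scored visually against controls on a 0 (no effect) to 100 (complete control) scale, 12 to 14 days after treatment in greenhouse. Flooded paddy plants treated at 2-leaf stage; postemergence plants at 1- to 4-leaf stage, 2 to 18 cm tall.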

large crabgrass = test: Test B pre-/postemergence herbicide test; type: in vivo, Digitaria sanguinalis
How it was run: (§1)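 Test chemicals in a non-phytotoxic solvent mixture with surfactant were applied preemergence to seeded species and postemergence to plants 2-18 cm tall (1- to 4-leaf stage); rice and barnyardgrass were also tested in a flooded paddy at the 2-leaf stage. Visual rating versus controls after 13-15 days in greenhouse, scale 0 (no effect) to 100 (complete control).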

corn = test: Test B pre-/postemergence herbicide test; type: in vivo, Zea mays
How it was run: as §1

pigweed = test: Test B pre-/postemergence herbicide test; type: in vivo, Amaranthus retroflexus
How it was run: as §1

cocklebur = test: Test B pre-/postemergence herbicide test; type: in vivo, Xanthium strumarium
How it was run: (§2)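 Formulation: non-phytotoxic solvent mix with surfactant. Timing: preemergence on seed and postemergence on 2–18 cm plants, applied concurrently. Readout after 13–15 d greenhouse: visual 0–100 control rating against controls.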

[3] = system: smallflower umbrella sedge; test: Test C flooded paddy test; type: in vivo, Cyperus difformis
blackgrass = test: Test B postemergence herbicide test; type: in vivo, Alopecurus myosuroides; settings: scale 0 (no effect) to 100 (complete control)
How it was run: (§3)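 Scale 0–100: zero equals no visible effect, 100 complete control, judged by eye relative to controls. Timing: 13 to 15 days in greenhouse post-treatment. Growth stage at spraying: two leaves (paddy) or one to four leaves, 2–18 cm (postemergence).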

Surinam grass = test: Test B pre-/postemergence herbicide test; type: in vivo, Urochloa decumbens
How it was run: as §1

lambsquarters = test: Test B pre-/postemergence herbicide test; type: in vivo, Chenopodium album
How it was run: as §1

ducksalad [4] = test: Test B flooded paddy test; type: in vivo, Heteranthera limosa; settings: 1000 g ai/ha, visual rating, scale 0 to 100 (0 no effect, 100 complete control), 13 to 15 days
How it was run: as §3

barnyardgrass [5] = test: Test B flooded paddy test; type: in vivo, Echinochloa crus-galli; settings: 1000 g ai/ha, visual rating, scale 0 to 100 (0 no effect, 100 complete control), 13 to 15 days
How it was run: as §3

barnyardgrass [6] = test: Test C flooded paddy test; type: in vivo, Echinochloa crus-galli
How it was run: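 Postemergence sprays were applied to plants 2 to 18 cm tall (1- to 4-leaf stage); in the flooded paddy test, barnyardgrass was grown to the 2-leaf stage. After 12 to 14 days in a greenhouse, injury was visually rated against untreated controls on a 0–100 scale (100 = complete control).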

giant foxtail = test: Test B pre-/postemergence herbicide test; type: in vivo, Setaria faberi
How it was run: as §1

morningglory = test: Test B pre-/postemergence herbicide test; type: in vivo, Ipomoea coccinea
How it was run: as §2

wheat = test: Test B postemergence herbicide test; type: in vivo, Triticum aestivum; parameters: key to Wheat plant response rating: 0 = no effect, 100 = complete control; settings: scale 0 (no effect) to 100 (complete control)
How it was run: (§4)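 Read-out: visual comparison with controls, scored 0 to 100, where 100 means complete control and 0 no effect. Formulated chemicals were applied postemergence to plants 2–18 cm tall (1- to 4-leaf), or to flooded-paddy plants at the 2-leaf stage, then held 13 to 15 days under glass.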

barnyardgrass [7] = test: Test B pre-/postemergence herbicide test; type: in vivo, Echinochloa crus-galli
How it was run: as §2

[8] = system: small flower umbrella sedge; test: Test B flooded paddy test; type: in vivo, Cyperus difformis; settings: 1000 g ai/ha, visual rating, scale 0 to 100 (0 no effect, 100 complete control), 13 to 15 days
How it was run: as §3

rice [9] = test: Test B pre-/postemergence herbicide test; type: in vivo, Oryza sativa; settings: preemergence
How it was run: as §1

wild oat = test: Test B postemergence herbicide test; type: in vivo, Avena fatua; settings: scale 0 (no effect) to 100 (complete control)
How it was run: as §4

velvetleaf = test: Test B pre-/postemergence herbicide test; type: in vivo, Abutilon theophrasti
How it was run: as §1

ducksalad [10] = test: Test C flooded paddy test; type: in vivo, Heteranthera limosa
[11] = 62 g ai/ha, scale 0 to 100 (0 no effect, 100 complete control)
[12] = 125 g ai/ha, scale of 0 to 100, 0 is no effect, 100 is complete control
[13] = 250 g ai/ha, scale of 0 to 100, 0 is no effect, 100 is complete control
[14] = 500 g ai/ha, visual rating after 12 to 14 days, scale 0 to 100 (0 no effect, 100 complete control)
[15] = 500 g ai/ha, visual rating 0-100, 0 no effect, 100 complete control, preemergence
[16] = Postemergence, 500 g ai/ha, visual rating after 13 to 15 days, scale 0 (no effect) to 100 (complete control)
[17] = postemergence, 125 g ai/ha, visual rating, scale 0 (no effect) to 100 (complete control)
[18] = preemergence, 125 g ai/ha, 0 to 100 scale, 0 is no effect, 100 is complete control
[19] = Postemergence, 500 g ai/ha, visual rating after 13 to 15 days
[20] = postemergence, 125 g ai/ha, visual rating

CCn1nc(C(C)(C)C)cc1C(=O)Nc1ccc(OC)c(C(=O)OC(C)C)c1 [Compound 101]
10: Crabgrass, Large plant response rating (large crabgrass; [17]) | Corn plant response rating (corn; [17]) | Surinam Grass plant response rating (Surinam grass; [17]) | Plant response rating, Surinam Grass (Surinam grass; [18]) | Plant response rating, Morningglory (morningglory; [15]) | Plant response rating, Morningglory (morningglory; [16]) | Morningglory plant response rating (morningglory; [17]) | Plant response rating, Morningglory (morningglory; [18]) | Wheat plant response rating (wheat; [20]) | Barnyardgrass plant response rating (barnyardgrass [7]; [17])
60: Plant response rating, Foxtail, Giant (giant foxtail; [15])
75: Sedge, Umbrella plant response rating [3, 12] | Plant response rating, Ducksalad (ducksalad [10]; [14])
30: Plant response rating, Surinam Grass (Surinam grass; [15]) | Barnyardgrass plant response rating (barnyardgrass [6]; [13]) | Plant response rating, Foxtail, Giant (giant foxtail; [16]) | Plant response rating, Rice (rice [9]; 125 g ai/ha, 0 to 100 scale, 0 is no effect, 100 is complete control) | Oat, Wild plant response rating (wild oat; [20]) | Plant response rating, Velvetleaf (velvetleaf; [16])
90: Plant response rating, Crabgrass, Large (large crabgrass; [15]) | Plant response rating, Pigweed (pigweed; [16]) | Plant response rating, Cocklebur (cocklebur; [15]) | Plant response rating, Sedge, Umbrella [3, 14] | Plant response rating, Lambsquarters (lambsquarters; [16]) | Ducksalad plant response rating (ducksalad [4])
25: Plant response rating, Rice (rice [2]; [14])
70: Barnyardgrass plant response rating (barnyardgrass [5]) | Plant response rating, Barnyardgrass (barnyardgrass [7]; [15])
100: Plant response rating, Pigweed (pigweed; [15]) | Plant response rating, Pigweed (pigweed; [18]) | Plant response rating, Lambsquarters (lambsquarters; [15]) | Plant response rating, Lambsquarters (lambsquarters; [18])
0: Rice plant response rating (rice [2]; [11]) | Rice plant response rating (rice [2]; [12]) | Rice plant response rating (rice [2]; [13]) | Plant response rating, Cocklebur (cocklebur; [18]) | Barnyardgrass plant response rating (barnyardgrass [6]; [11]) | Ducksalad plant response rating (ducksalad [10]; [11]) | Ducksalad plant response rating (ducksalad [10]; [12])
40: Plant response rating, Corn (corn; [15]) | Plant response rating, Corn (corn; [16]) | Plant response rating, Blackgrass (blackgrass; [19]) | Plant response rating, Barnyardgrass (barnyardgrass [7]; [18]) | Plant response rating, Rice (rice [9]; 500 g ai/ha, visual rating 0-100, 0 no effect, 100 complete control) | Ducksalad plant response rating (ducksalad [10]; [13])
80: Rice plant response rating (rice [1]) | Pigweed plant response rating (pigweed; [17]) | Plant response rating, Cocklebur (cocklebur; [16]) | Sedge, Umbrella plant response rating [3, 13] | Lambsquarters plant response rating (lambsquarters; [17]) | Sedge, Umbrella plant response rating [8]
20: Plant response rating, Crabgrass, Large (large crabgrass; [16]) | Plant response rating, Corn (corn; [18]) | Cocklebur plant response rating (cocklebur; [17]) | Sedge, Umbrella plant response rating [3, 11] | Blackgrass plant response rating (blackgrass; [20]) | Plant response rating, Surinam Grass (Surinam grass; [16]) | Barnyardgrass plant response rating (barnyardgrass [6]; [12]) | Foxtail, Giant plant response rating (giant foxtail; [17]) | Plant response rating, Foxtail, Giant (giant foxtail; [18]) | Plant response rating, Wheat (wheat; [19]) | Plant response rating, Barnyardgrass (barnyardgrass [7]; [16]) | Velvetleaf plant response rating (velvetleaf; [17]) | Plant response rating, Velvetleaf (velvetleaf; [18])
50: Plant response rating, Crabgrass, Large (large crabgrass; [18]) | Plant response rating, Barnyardgrass (barnyardgrass [6]; [14]) | Plant response rating, Oat, Wild (wild oat; [19]) | Plant response rating, Velvetleaf (velvetleaf; [15])
